US11260083B2, “Compositions and methods for treating and preventing graft versus host disease” (The Regents of the University of Michigan, priority 2016, dated 2022)

Tests used:
[1] = system: CD326+ intestinal epithelial cells (IECs); assay: Western blot / qPCR of CD326+ IECs isolated from BMT recipients; format: in vivo, mouse
Description: CD326+ purified IECs were harvested from animals that received syngeneic (BALB/c→BALB/c) or allogeneic (C57BL/6J→BALB/c) BMT. Whole cell lysates were next obtained and protein concentrations determined with Pierce BCA Protein Assay (Thermo Scientific). Equal amounts of protein (20 μg) were separated by SDS-PAGE gel electrophoresis (120V, 1.5 h) and subsequently transferred to polyvinylidene difluoride (PVDF) membrane using a Bio-Rad semi-dry transfer cell (Hercules, Calif.) (20V, lh). The following antibodies were used to analyze the membranes with dilutions in accordance with the manufacturers specification sheet: α-tubulin (Cell Signaling, clone 11H10), Acetyl histone H4 (Lys5/8/12/16) (EMD Millipore, clone 3HH-4C10), SLC5A8 (abcam), GPR43 (abcam), Occludin (abcam, clone EPR8208), JAM (abcam, clone EP1042Y), and Claudin 5 (abcam). Secondary anti-rabbit antibody conjugated to HRP (Jackson ImmunoResearch, Cat No. 111-035-003) was used to detect primary antibodies, where needed. Densitometric analysis was performed using ImageJ software (National Institutes of Health; Bethesda, […].).
mRNA was isolated from samples using RNeasy kit following manufacturers instructions (Qiagen; Venlo, Netherlands). Using 1 μg of each mRNA template, cDNA was synthesized using SuperScript VILO (Invitrogen; Carlsbad, Calif.). qPCR primers were designed for murine targets. All primers were verified for the production of a single specific PCR product using a melting curve program and are shown below in Table 2.
It was next determined if the reduced amount of butyrate in IECs could be restored in vivo and further, whether this would have a functional impact on histone acetylation. In addition to utilizing transporters, butyrate can also diffuse across the mucosal barrier into IECs when present in high concentrations (Ganapathy, V., Thangaraju, M., Prasad, P. D., Martin, P. M. & Singh, N. Transporters and receptors for short-chain fatty acids as the molecular link between colonic bacteria and the host. Curr Opin Pharmacol 13, 869-874 (2013); Charney, A. N., Micic, L. & Egnor, R. W. Nonionic diffusion of short-chain fatty acids across rat colon. Am. J Physiol. 274, G518-24 (1998)). Therefore, it was hypothesized that administration of high amounts of butyrate locally would restore histone acetylation of IECs, in vivo. To test this, C57BL/6J cells were transferred to Balb/c mice and administered vehicle or butyrate via daily intragastric gavage.
To determine if these are involved in in vivo protection from GVHD, the expression of pro- and anti-apoptotic proteins as well as junctional proteins in IECs isolated 21 days following allo-BMT was determined. […] Overall, the results identify several ways in which butyrate can directly enhance epithelial cell function ranging from protection from irradiation and allo-T cell mediated apoptosis to proliferation and junctional protein expression, both in vitro and in vivo.

[2] = system: donor T cells, Treg cells and macrophages in the intestine; assay: Flow cytometry of intestinal cellular contents after allo-BMT; format: in vivo, mouse
Text: To analyze immunophenotype surface markers, lymphocytes contained in the IEC fraction or spleen were harvested, stained using recommended dilutions indicated by manufacturer product sheets and gated on CD4-conjugated PerCP/Cy5.5 (Clone: GK1.5) or CD8-conjugated APC (Clone: 53-6.7) and configurations of the following per mouse in duplicate: CD69-PE (Clone: H1.2F3), CD62L-PE (Clone: MEL-14), CD25-PE (Clone: 3C7), CD44-PerCP/Cy5.5 (Clone: IM7), CD44-APC (Clone: IM7), FoxP3-APC (Clone: FJK-16s). Stained cells were then analyzed with an Accuri C6 Flow Cytometer (BD Biosciences). IECs were stained with CD326-conjugated APC (Clone: G8.8) and DAPI and sorted to >98% purity using a FACSAria III (BD Biosciences) gating on live cells.
The total numbers of CD45.1+ cells recovered from the intestinal lamina propria were not different between vehicle- and butyrate-treated allo-BMT recipients. By contrast, intestinal infiltration of donor CD4+ and CD8+ T cells and activated T cells (CD69+ or CD44hi) was decreased in animals that received local intragastric butyrate administration (FIG. 4a). However, the ratio of donor Treg cells to effector T cells was not different in the intestines of these animals (FIG. 4b). […] However, no difference in the total number of donor macrophages in the intestine of allogenenic recipients that were treated with either vehicle or butyrate was observed (FIG. 4c).

[3] = 21 days following allo-BMT, intragastric butyrate

CCCC(=O)[O-].[Na+] [butyrate, sodium butyrate]
gene expression of junctional proteins in IECs ([1]; 21 days following allo-BMT, butyrate treated animals): similarly increased | BCL-B (Bcl2110) expression in IECs [1, 3]: increased | transcripts of Bak1 in IECs [1, 3]: significantly decreased | transcripts of Bax in IECs [1, 3]: significantly decreased | acetylation of histone H4 in IECs ([1]; C57BL/6J→Balb/c, daily intragastric butyrate for 21 days, vs untreated allo-BMT recipients): significantly restored | butyrate transporter SLC5A8 in IECs ([1]; daily intragastric gavage of butyrate): increase | protein amounts of Occludin, JAM and Claudin 5 (immunoblot) ([1]; recipients of allo-BMT treated with intragastric butyrate): increased junctional proteins | ratio of donor Treg cells to effector T cells in the intestines ([2]; 21 days after allo-BMT): not different | intestinal infiltration of donor CD4+ and CD8+ T cells and activated T cells (CD69+ or CD44hi) ([2]; 21 days after allo-BMT, intragastric butyrate): decreased | total numbers of CD45.1+ cells recovered from the intestinal lamina propria ([2]; 21 days after allo-BMT, vehicle vs butyrate): not different | total number of donor macrophages in the intestine ([2]; allogeneic recipients, vehicle vs butyrate): no difference
